Data reported in patent publication US12331035B2, “Bicyclic compound and use thereof” (SK BIOPHARMACEUTICALS CO., LTD., priority 2019, dated 2025).

Molecular target: T1, PRMT5-MEP50 enzyme complex (Homo sapiens, UniProt O14744)
T1 construct: purchased BPS Bioscience (USA) 51045
Experiment: In vitro PRMT5 enzyme activity assay (methylation of histone H4 arginine H4R3, ELISA absorbance at 450 nm)
Assay type: biochemical
Details: S-adenosylmethionine, histone H4 peptide, 2 hours at room temperature, 8 points 10 μM to 0.128 nM
Protocol: Method for Measuring Enzyme Activity
In vitro assay: PRMT5-MEP50 enzyme complex, cofactor S-adenosylmethionine (SAM) and histone H4 peptide were reacted in vitro, and methylation of arginine (H4R3) —which is the third amino acid of histone H4—was measured in order to measure the enzyme activity of PRMT5.
Reagents: PRMT5-MEP50 enzyme complex (Catalog No. 51045), blocking buffer (52100-B), histone methyltransferase reaction buffer 2 (4×HMT assay buffer 2, Catalog No. 52170), and primary antibody (primary antibody 4-3, Catalog No. 52150) were purchased from BPS Bioscience (USA). The histone H4 peptide (1-20 amino acids) was custom made by Komabiotech (Korea) and used. S-adenosylmethionine was purchased from NEB (New England Biolabs, USA, Catalog No. B9003S). Plates for coating histone H4 peptide, washing buffer and color development reagent were purchased from the following vendors: Plate (Immobilizer™-Amino Plate, NUNC, Denmark, Catalog No. 436023), carbonate-bicarbonate buffer (Sigma-Aldrich, USA, Catalog No. C3041), washing buffer (10×TBST, Biosesang, Korea, Catalog No. T2005), TMB ELISA substrate (Abcam, UK, Catalog No. ab210902), horseradish peroxidase (HRP)-conjugated antibody (Abcam, UK, Catalog No. ab6721).
Experimental procedure: The histone H4 peptide was diluted with carbonate-bicarbonate buffer and prepared to 100 μg/mL, and then dispensed onto the plate per 100 μL and reacted at 37° C. for 1 hour. PRMT5-MEP50 enzyme complex and S-adenosylmethionine were diluted with histone methyltransferase reaction buffer to prepare 5 μg/mL and 2 μM, respectively, and then 20 μL of PRMT5-MEP50 enzyme complex and 25 μL of S-adenosylmethionine were dispensed onto the plate prepared above. 5 μL of the compound diluted with 10% dimethyl sulfoxide solution was added thereto and reacted at room temperature for 2 hours (final volume=50 μL). The concentration of the compound was diluted 1:5 from 10 μM until the lowest concentration of 0.128 nM, and 8 points were used for the test. After preparing the primary antibody by diluting 1:2000 with blocking buffer, 100 μL was added to the plate and reacted at room temperature for 1 hour. After preparing horseradish peroxidase-conjugated antibody by diluting 1:10,000 with blocking buffer, 100 μL was added to the plate and reacted at room temperature for 1 hour. 100 μL of TMB substrate was added and reacted for 3 minutes at room temperature, and 100 μL of 1 N sulfuric acid was then added to terminate the reaction. Then, the absorbance at 450 nm was measured to calculate the IC50 value of the compound. (+++: 1 to 100 nM, ++: greater than 100 to 1,000 nM, +: greater than 1,000 to 10,000 nM)

T1 sequence (O14744 2-637 limits assumed): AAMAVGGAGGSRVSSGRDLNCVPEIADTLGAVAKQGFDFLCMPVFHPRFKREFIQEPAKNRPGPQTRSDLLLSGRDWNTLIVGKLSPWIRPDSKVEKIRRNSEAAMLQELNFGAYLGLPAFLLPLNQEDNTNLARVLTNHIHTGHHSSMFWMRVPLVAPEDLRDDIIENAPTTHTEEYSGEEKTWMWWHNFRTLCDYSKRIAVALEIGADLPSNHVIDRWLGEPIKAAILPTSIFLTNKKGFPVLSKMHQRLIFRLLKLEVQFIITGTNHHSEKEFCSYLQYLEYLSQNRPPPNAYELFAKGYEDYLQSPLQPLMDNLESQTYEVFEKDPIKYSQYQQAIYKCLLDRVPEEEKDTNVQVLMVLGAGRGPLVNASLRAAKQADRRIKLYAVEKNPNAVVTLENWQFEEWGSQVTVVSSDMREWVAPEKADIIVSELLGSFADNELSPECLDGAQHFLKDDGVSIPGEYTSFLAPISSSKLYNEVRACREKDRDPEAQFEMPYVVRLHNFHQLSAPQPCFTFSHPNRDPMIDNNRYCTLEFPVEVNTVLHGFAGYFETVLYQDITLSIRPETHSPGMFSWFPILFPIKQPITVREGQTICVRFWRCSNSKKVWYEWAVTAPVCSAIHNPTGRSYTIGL
T1 sequence (Q9BQA1 2-342 partner limits assumed): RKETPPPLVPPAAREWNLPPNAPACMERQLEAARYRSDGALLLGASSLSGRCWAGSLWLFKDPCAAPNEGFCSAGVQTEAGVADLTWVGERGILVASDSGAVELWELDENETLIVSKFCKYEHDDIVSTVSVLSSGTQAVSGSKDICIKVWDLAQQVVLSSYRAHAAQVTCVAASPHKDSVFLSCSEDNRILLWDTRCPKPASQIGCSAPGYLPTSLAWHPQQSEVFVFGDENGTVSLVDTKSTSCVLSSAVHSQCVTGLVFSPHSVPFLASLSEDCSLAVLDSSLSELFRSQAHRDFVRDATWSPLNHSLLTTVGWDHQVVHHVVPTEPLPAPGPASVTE

IC50 [nM]	Structure (SMILES)
1 to 100	O=C1c2ccc(NCC3CCCCC3)cc2CCN1C[C@H](O)CN1CCc2ccccc2C1 [Example 6, 6-(cyclohexylmethylamino)-2-[(2R)-3-(3,4-dihydro-1H-isoquinolin-2-yl)-2-hydroxy-propyl]-3,4-dihydroisoquinolin-1-one]
1 to 100	O=C1c2ccc(NCc3ccccc3)cc2CCN1C[C@H](O)CN1CCc2ccccc2C1 [Example 7, 6-(benzylamino)-2-[(2R)-3-(3,4-dihydro-1H-isoquinolin-2-yl)-2-hydroxy-propyl]-3,4-dihydroisoquinolin-1-one]
1 to 100	O=C1c2ccc(-c3cccnc3)cc2CCN1C[C@H](O)CN1CCc2ccccc2C1 [Example 9, 2-[(2R)-3-(3,4-dihydro-1H-isoquinolin-2-yl)-2-hydroxy-propyl]-6-(3-pyridyl)-3,4-dihydroisoquinolin-1-one]
1 to 100	O=C1c2ccc(NCc3ccncc3)cc2CCN1C[C@H](O)CN1CCc2ccccc2C1 [Example 10, 2-[(2R)-3-(3,4-dihydro-1H-isoquinolin-2-yl)-2-hydroxy-propyl]-6-(4-pyridylmethylamino)-3,4-dihydroisoquinolin-1-one]
1 to 100	CN(c1ccc2c(c1)CCN(C[C@H](O)CN1CCc3ccccc3C1)C2=O)C1CCCCC1 [Example 11, 6-[cyclohexyl(methyl)amino]-2-[(2R)-3-(3,4-dihydro-1H-isoquinolin-2-yl)-2-hydroxy-propyl]-3,4-dihydroisoquinolin-1-one]
1 to 100	O=C1c2ccc(-c3ccc(F)nc3)cc2CCN1C[C@H](O)CN1CCc2ccccc2C1 [Example 15, 2-[(2R)-3-(3,4-dihydro-1H-isoquinolin-2-yl)-2-hydroxy-propyl]-6-(6-fluoro-3-pyridyl)-3,4-dihydroisoquinolin-1-one]
1000 to 10000	O=C1c2ccc(N3CCCC3=O)cc2CCN1C[C@H](O)CN1CCc2ccccc2C1 [Example 18, 2-[(2R)-3-(3,4-dihydro-1H-isoquinolin-2-yl)-2-hydroxy-propyl]-6-(2-oxopyrrolidin-1-yl)-3,4-dihydroisoquinolin-1-one]
100 to 1000	CC(C)(C)C(=O)Nc1ccc2c(c1)CCN(C[C@H](O)CN1CCc3ccccc3C1)C2=O [Example 19, N-[2-[(2R)-3-(3,4-dihydro-1H-isoquinolin-2-yl)-2-hydroxy-propyl]-1-oxo-3,4-dihydroisoquinolin-6-yl]-2,2-dimethylpropanamide]
100 to 1000	O=C1c2ccc(N3CCCCC3=O)cc2CCN1C[C@H](O)CN1CCc2ccccc2C1 [Example 21, 2-[(2R)-3-(3,4-dihydro-1H-isoquinolin-2-yl)-2-hydroxy-propyl]-6-(2-oxo-1-piperidyl)-3,4-dihydroisoquinolin-1-one]
1 to 100	O=C1c2ccc(NCC3CCOCC3)cc2CCN1C[C@H](O)CN1CCc2ccccc2C1 [Example 23, 2-[(2R)-3-(3,4-dihydro-1H-isoquinolin-2-yl)-2-hydroxy-propyl]-6-(tetrahydropyran-4-ylmethylamino)-3,4-dihydroisoquinolin-1-one]
1 to 100	CC(C)(O)CNc1ccc2c(c1)CCN(C[C@H](O)CN1CCc3ccccc3C1)C2=O [Example 25, 2-[(2R)-3-(3,4-dihydro-1H-isoquinolin-2-yl)-2-hydroxy-propyl]-6-[(2-hydroxy-2-methyl-propyl)amino]-3,4-dihydroisoquinolin-1-one]

The remaining lines, values behind:

Structure (SMILES)	IC50 [nM]
O=C1c2ccc(Br)cc2CCN1C[C@H](O)CN1CCc2ccccc2C1 [Example 1, 6-bromo-2-[(2R)-3-(3,4-dihydro-1H-isoquinolin-2-yl)-2-hydroxy-propyl]-3,4-dihydroisoquinolin-1-one]	1 to 100
O=C1c2ccc(N3CCCC3)cc2CCN1C[C@H](O)CN1CCc2ccccc2C1 [Example 2, 2-[(2R)-3-(3,4-dihydro-1H-isoquinolin-2-yl)-2-hydroxy-propyl]-6-pyrrolidin-1-yl-3,4-dihydroisoquinolin-1-one]	100 to 1000
O=C1c2ccc(NC3CCOCC3)cc2CCN1C[C@H](O)CN1CCc2ccccc2C1 [Example 5, 2-[(2R)-3-(3,4-dihydro-1H-isoquinolin-2-yl)-2-hydroxy-propyl]-6-(tetrahydropyran-4-ylamino)-3,4-dihydroisoquinolin-1-one]	1 to 100
O=C1c2ccc(-c3ccncc3)cc2CCN1C[C@H](O)CN1CCc2ccccc2C1 [Example 8, 2-[(2R)-3-(3,4-dihydro-1H-isoquinolin-2-yl)-2-hydroxy-propyl]-6-(4-pyridyl)-3,4-dihydroisoquinolin-1-one]	1 to 100
O=C1c2ccc(-c3ccnc(F)c3)cc2CCN1C[C@H](O)CN1CCc2ccccc2C1 [Example 12, 2-[(2R)-3-(3,4-dihydro-1H-isoquinolin-2-yl)-2-hydroxy-propyl]-6-(2-fluoro-4-pyridyl)-3,4-dihydroisoquinolin-1-one]	1 to 100
CCCc1ccc2c(c1)CCN(C[C@H](O)CN1CCc3ccccc3C1)C2=O [Example 13, 2-[(2R)-3-(3,4-dihydro-1H-isoquinolin-2-yl)-2-hydroxy-propyl]-6-propyl-3,4-dihydroisoquinolin-1-one]	1 to 100
C[C@@H]1CN(c2ccc3c(c2)CCN(C[C@H](O)CN2CCc4ccccc4C2)C3=O)CCO1 [Example 16, 2-[(2R)-3-(3,4-dihydro-1H-isoquinolin-2-yl)-2-hydroxy-propyl]-6-[(2R)-2-methylmorpholin-4-yl]-3,4-dihydroisoquinolin-1-one]	1 to 100
CN1CCN(c2ccc3c(c2)CCN(C[C@H](O)CN2CCc4ccccc4C2)C3=O)CC1 [Example 17, 2-[(2R)-3-(3,4-dihydro-1H-isoquinolin-2-yl)-2-hydroxy-propyl]-6-(4-methylpiperazin-1-yl)-3,4-dihydroisoquinolin-1-one]	1 to 100
O=C1c2ccc(N3CCC3=O)cc2CCN1C[C@H](O)CN1CCc2ccccc2C1 [Example 20, 2-[(2R)-3-(3,4-dihydro-1H-isoquinolin-2-yl)-2-hydroxy-propyl]-6-(2-oxoazetidin-1-yl)-3,4-dihydroisoquinolin-1-one]	100 to 1000
O=C1c2ccc(NCc3cccnc3)cc2CCN1C[C@H](O)CN1CCc2ccccc2C1 [Example 22, 2-[(2R)-3-(3,4-dihydro-1H-isoquinolin-2-yl)-2-hydroxy-propyl]-6-(3-pyridylmethylamino)-3,4-dihydroisoquinolin-1-one]	1000 to 10000
CC(=O)N1CCC(CNc2ccc3c(c2)CCN(C[C@H](O)CN2CCc4ccccc4C2)C3=O)CC1 [Example 24, 6-[(1-acetyl-4-piperidyl)methylamino]-2-[(2R)-3-(3,4-dihydro-1H-isoquinolin-2-yl)-2-hydroxy-propyl]-3,4-dihydroisoquinolin-1-one]	1 to 100
O=C(Nc1ccc2c(c1)CCN(C[C@H](O)CN1CCc3ccccc3C1)C2=O)c1cccnc1 [Example 26, N-[2-[(2R)-3-(3,4-dihydro-1H-isoquinolin-2-yl)-2-hydroxy-propyl]-1-oxo-3,4-dihydroisoquinolin-6-yl]pyridine-3-carboxamide]	1 to 100
O=C(Nc1ccc2c(c1)CCN(C[C@H](O)CN1CCc3ccccc3C1)C2=O)c1ccncc1 [Example 27, N-[2-[(2R)-3-(3,4-dihydro-1H-isoquinolin-2-yl)-2-hydroxy-propyl]-1-oxo-3,4-dihydroisoquinolin-6-yl]pyridine-4-carboxamide]	100 to 1000
